Molecular target: T1, human VR1 (Homo sapiens, UniProt Q8NER1)
T1 construct: expressed in transfected cells
Assay: Inhibition of Ca2+ entry in cells caused by proton, in rat glioma (C6BU1) cells stably expressing human VR1 (Fura 2 fluorescence)
Format: cell-based
Conditions: inhibition of proton-induced Ca2+ entry
Protocol: The assay for evaluation of VR1 inhibition by the inventive compounds will be described below. The assay was intended to evaluate in vitro inhibition of Ca^2+ entry in cells caused by proton, one of the VR1 agonists.
Rat glioma (C6BU1) cells stably expressing human VR1 were suspended in 20 mM MES buffer (at pH 6.8, contg. 20 mM 2-morpholinoethanesulfonate (referred to as MES hereinafter), 115 mM NaCl, 5 mM KCl, 1 mM MgCl2 and 14 mM D-glucose) to make a cell density of 1×10^6 cells/mL. A fluorescent dye, Fura 2-AMsolution (DojindoCorporate, Cat. No. 343-05401) was added to the suspension to make a 5 μM concentration thereof. Further, Pluronic F-127 (Wako Pure Chemical Industries, Ltd., Cat. No. P6866) was added to make a 0.1% content thereof. Then, the suspension was incubated at 37° C. for 30 min. The cells were harvested and washed three times with 20 mM MES buffer. The cells were suspended again to make a cell density of 5×10^5 cells/mL. A 500-μL portion of the suspension was taken with a cuvette (MC MEDICAL, INC., Cat. No. SSR3121), to which 10 μL of 20 mM MES buffer containing 250 mM CaCl2 was added to incorporate Ca^2+ into the cells. At the same time, 5 μL of a test compound solution (in a range of 100 μM to 10 nM in DMSO) was also added to provide a final concentration thereof in a range of 1 μM to 0.1 nM. Alternatively, 5 μL of DMSO was added as control to provide a final concentration of 1% DMSO. The suspension was set in an intracellular ionometer (CAF-110; JASCO) 10 min after those additions. The cells were stimulated with protons by addition of 60 μL of 20 mM MES buffer at pH 1.1 to the suspension to set its pH at 5.5. The activity of the test compound was determined as a difference between the minimum of fluorescence intensity before agonist stimulation and its maximum after the stimulation. The value of IC50 was derived from percentage of inhibition by the test compound compared with the control.
In the tables, the symbol “++” indicates an IC50 value less than 100 nM and the symbol “+” indicates an IC50 value of 100 nM to 1,000 nM inclusive.

T1 sequence (Q8NER1 whole entry): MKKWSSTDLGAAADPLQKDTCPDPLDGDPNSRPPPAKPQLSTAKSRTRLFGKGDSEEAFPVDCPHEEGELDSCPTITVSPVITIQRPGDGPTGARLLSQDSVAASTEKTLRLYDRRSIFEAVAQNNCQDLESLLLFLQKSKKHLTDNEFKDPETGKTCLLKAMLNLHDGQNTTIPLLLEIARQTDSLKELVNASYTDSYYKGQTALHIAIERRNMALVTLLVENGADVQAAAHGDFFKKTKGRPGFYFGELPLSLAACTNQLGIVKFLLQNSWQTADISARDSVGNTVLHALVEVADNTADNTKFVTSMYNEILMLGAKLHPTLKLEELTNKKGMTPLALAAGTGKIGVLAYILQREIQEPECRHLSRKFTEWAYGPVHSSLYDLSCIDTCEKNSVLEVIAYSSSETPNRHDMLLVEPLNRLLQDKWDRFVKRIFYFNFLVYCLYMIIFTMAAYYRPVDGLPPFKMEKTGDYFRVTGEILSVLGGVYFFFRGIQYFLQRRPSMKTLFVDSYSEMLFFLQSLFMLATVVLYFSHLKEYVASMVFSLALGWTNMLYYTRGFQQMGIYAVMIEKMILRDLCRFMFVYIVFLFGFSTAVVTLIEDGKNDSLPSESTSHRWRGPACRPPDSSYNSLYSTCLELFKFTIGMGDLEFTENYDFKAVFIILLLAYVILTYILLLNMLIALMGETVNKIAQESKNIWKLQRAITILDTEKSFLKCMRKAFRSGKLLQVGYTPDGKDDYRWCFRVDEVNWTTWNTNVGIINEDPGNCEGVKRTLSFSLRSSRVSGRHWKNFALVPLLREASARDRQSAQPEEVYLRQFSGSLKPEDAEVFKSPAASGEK

Row | Compound | IC50 [nM]
1 | CC1(C)CN(c2ncccc2Cl)c2cccc(C(=O)Nc3ccc(C(C)(C)C)cc3)c2O1 [Example 1-018] | 100 to 1000
2 | CC1CN(c2ncccc2Cl)c2cccc(C(=O)Nc3ccc(C(C)(C)C)cc3)c2O1 (stereo not shown) [Example 1-019] | 100 to 1000
3 | COc1ccc(NC(=O)c2cccc3c2OCCN3c2ncccc2Cl)cc1 [Example 1-023] | 100 to 1000
4 | O=C(Nc1ccc(F)cc1)c1cccc2c1OCCN2c1ncccc1Cl [Example 1-026] | 100 to 1000
5 | O=C(Nc1ccc2cccnc2c1)c1cccc2c1OCCN2c1ncccc1Cl [Example 1-032] | 100 to 1000
6 | CC(=O)c1ccc(NC(=O)c2cccc3c2OCCN3c2ncccc2Cl)cc1 [Example 1-039, N-(4-acetylphenyl)-4-(3-chloropyridin-2-yl)-3,4-dihydro-2H-benzo[1,4]oxazine-8-carboxamide] | 100 to 1000
7 | CCC(C)(O)c1ccc(NC(=O)c2cccc3c2OCCN3c2ncccc2Cl)cc1 (stereo not shown) [Example 1-041, 4-(3-chloropyridin-2-yl)-N-[4-(1-hydroxy-1-methyl)propyl]phenyl-3,4-dihydro-2H-benzo[1,4]oxazine-8-carboxamide] | 100 to 1000
8 | CC(C)(C)ON1CCC(NC(=O)c2cccc3c2OCCN3c2ncccc2Cl)CC1 [Example 1-043] | 100 to 1000
9 | CC(C)Oc1cccc(NC(=O)c2cccc3c2OCCN3c2ncccc2Cl)c1 [Example 1-044] | < 100
10 | CC(C)COc1cccc(NC(=O)c2cccc3c2OCCN3c2ncccc2Cl)c1 [Example 1-045] | < 100
11 | Cc1cccnc1N1CCOc2c(C(=O)Nc3ccc(C(C)(C)C)cc3)cccc21 [Example 1-047] | < 100
12 | O=C(Nc1ccc(N2CCCCC2)cc1)c1cccc2c1OCCN2c1ncccc1Cl [Example 1-048] | < 100
13 | CN(C)c1ccc(NC(=O)c2cccc3c2OCCN3c2ncccc2Cl)cc1 [Example 1-049] | 100 to 1000
14 | O=C(Nc1ccc(N2CCOCC2)cc1)c1cccc2c1OCCN2c1ncccc1Cl [Example 1-050] | 100 to 1000
15 | CC(C)Oc1ccc(NC(=O)c2cccc3c2OCCN3c2ncccc2Cl)c(F)c1 [Example 1-052] | < 100
16 | O=C(Nc1ccc(F)c(C(F)(F)F)c1)c1cccc2c1OCCN2c1ncccc1Cl [Example 1-053] | < 100
17 | CN(C)c1ccc(NC(=O)c2cccc3c2OCCN3c2ncccc2Cl)cc1C(F)(F)F [Example 1-054] | < 100
18 | CC(C)Oc1ccc(NC(=O)c2cccc3c2OCCN3c2ncccc2Cl)cc1C(F)(F)F [Example 1-055] | < 100
19 | COc1ccc(NC(=O)c2cccc3c2OCCN3c2ncccc2Cl)cc1C(F)(F)F [Example 1-056] | < 100
20 | CC(C)COc1ccc(NC(=O)c2cccc3c2OCCN3c2ncccc2Cl)cc1C(F)(F)F [Example 1-057] | < 100
21 | Cc1ccnc(N2CCOc3c(C(=O)Nc4ccc(C(C)(C)C)cc4)cccc32)c1 [Example 1-058, N-(4-tert-butylphenyl)-4-(4-methylpyridin-2-yl)-3,4-dihydro-2H-benzo[1,4]oxazine-8-carboxamide] | 100 to 1000
22 | Cc1cccc(N2CCOc3c(C(=O)Nc4ccc(C(C)(C)C)cc4)cccc32)n1 [Example 1-059] | 100 to 1000
23 | Cc1ccc(N2CCOc3c(C(=O)Nc4ccc(C(C)(C)C)cc4)cccc32)nc1 [Example 1-060] | < 100
24 | CC(C)(C)c1ccc(NC(=O)c2cccc3c2OCCN3c2cccnc2)cc1 [Example 1-061] | 100 to 1000
25 | Cc1ccc(N2CCOc3c(C(=O)Nc4ccc(C#N)cc4)cccc32)nc1 [Example 1-062] | < 100
26 | Cc1ccc(N2CCOc3c(C(=O)Nc4ccc(Cl)c(N)c4)cccc32)nc1 [Example 1-063] | < 100
27 | CCOC1CCN(c2ccc(NC(=O)c3cccc4c3OCCN4c3ccc(C)cn3)cc2F)CC1 [Example 1-068] | < 100
28 | Cc1ccc(N2CCOc3c(C(=O)Nc4ccc(N5CCC(OC(C)C)CC5)c(F)c4)cccc32)nc1 [Example 1-069] | < 100
29 | COC1CCCN(c2ccc(NC(=O)c3cccc4c3OCCN4c3ccc(C)cn3)cc2F)C1 (stereo not shown) [Example 1-070] | < 100

Results, then the compound that gave them:

Row | IC50 [nM] | Compound
30 | < 100 | CC(O)c1cnc(N2CCOc3c(C(=O)Nc4ccc(C(F)(F)F)cc4)cccc32)c(Cl)c1 (single isomer, unassigned; (+)) [Example 2-12, (+)-N-(4-trifluoromethylphenyl)-4-{3-chloro-5-(1-hydroxyethyl)pyridin-2-yl}-3,4-dihydro-2H-benzo[1,4]oxazine-8-carboxamide]
31 | < 100 | CC(O)c1cnc(N2CCOc3c(C(=O)Nc4ccc(OC(F)(F)F)cc4)cccc32)c(Cl)c1 (single isomer, unassigned; (+)) [Example 2-14, (+)-N-(4-trifluoromethoxyphenyl)-4-{3-chloro-5-(1-hydroxyethyl)pyridin-2-yl}-3,4-dihydro-2H-benzo[1,4]oxazine-8-carboxamide]
32 | < 100 | CC(O)c1cnc(N2CCOc3c(C(=O)Nc4ccc(C(F)(F)F)cc4)cccc32)c(Cl)c1 (single isomer, unassigned; (-)) [Example 2-13, (−)-N-(4-trifluoromethylphenyl)-4-{3-chloro-5-(1-hydroxyethyl)pyridin-2-yl}-3,4-dihydro-2H-benzo[1,4]oxazine-8-carboxamide]
33 | < 100 | CC(O)c1cnc(N2CCOc3c(C(=O)Nc4ccc(OC(F)(F)F)cc4)cccc32)c(Cl)c1 (single isomer, unassigned; (-)) [Example 2-15, (−)-N-(4-trifluoromethoxyphenyl)-4-{3-chloro-5-(1-hydroxyethyl)pyridin-2-yl}-3,4-dihydro-2H-benzo[1,4]oxazine-8-carboxamide]
34 | < 100 | CC(C)(C)c1ccc(NC(=O)c2cccc3c2OCCN3c2ncccc2Cl)cc1 [Example 1-001, N-(4-tert-butylphenyl)-4-(3-chloropyridin-2-yl)-3,4-dihydro-2H-benzo[1,4]oxazine-8-carboxamide]
35 | < 100 | CC1COc2c(C(=O)Nc3ccc(C(C)(C)C)cc3)cccc2N1c1ncccc1Cl (stereo not shown) [Example 1-003, N-(4-tert-butylphenyl)-4-(3-chloropyridin-2-yl)-3-methyl-3,4-dihydro-2H-benzo[1,4]oxazine-8-carboxamide]
36 | < 100 | CN1CCN(c2ncccc2Cl)c2cccc(C(=O)Nc3ccc(C(C)(C)C)cc3)c21 [Example 1-004, N-(4-tert-butylphenyl)-1-(3-chloropyridin-2-yl)-4-methyl-1,2,3,4-tetrahydroquinoxaline-5-carboxamide]
37 | < 100 | CC(C)(C)c1ccc(NC(=O)c2cccc3c2OCCCN3c2ncccc2Cl)cc1 [Example 1-005, N-(4-tert-butylphenyl)-9-(3-chloropyridin-2-yl)-6,7,8,9-tetrahydro-5-oxa-9-aza-benzocycloheptene-4-carboxamide]
38 | < 100 | O=C(Nc1ccc(Cl)cc1)c1cccc2c1OCCN2c1ncccc1Cl [Example 1-006]
39 | < 100 | CC(C)Oc1ccc(NC(=O)c2cccc3c2OCCN3c2ncccc2Cl)cc1 [Example 1-007]
40 | < 100 | Cc1ccc(NC(=O)c2cccc3c2OCCN3c2ncccc2Cl)cc1 [Example 1-009]
41 | < 100 | CC(C)COc1ccc(NC(=O)c2cccc3c2OCCN3c2ncccc2Cl)cc1 [Example 1-011]
42 | < 100 | CC(C)(C)c1ccc(NC(=O)c2cccc3c2OCCN3c2ccccn2)cc1 [Example 1-016]
43 | < 100 | CC(C)(C)c1ccc(NC(=O)c2cccc3c2OCCN3c2ncccc2C(F)(F)F)cc1 [Example 1-017]
44 | < 100 | CC(C)(C)c1ccc(NC(=O)c2cc(Cl)cc3c2OCCN3c2ncccc2Cl)cc1 [Example 1-020]
45 | < 100 | O=C(Nc1ccc(OC(F)(F)F)cc1)c1cccc2c1OCCN2c1ncccc1Cl [Example 1-022]
46 | < 100 | O=C(Nc1ccc(Cl)c(C(F)(F)F)c1)c1cccc2c1OCCN2c1ncccc1Cl [Example 1-025]
47 | < 100 | O=C(Nc1cccc(C(F)(F)F)c1)c1cccc2c1OCCN2c1ncccc1Cl [Example 1-027]
48 | < 100 | O=C(Nc1ccc(C(F)(F)F)cn1)c1cccc2c1OCCN2c1ncccc1Cl [Example 1-029]
49 | < 100 | O=C(Nc1ccc(C(F)(F)F)nc1)c1cccc2c1OCCN2c1ncccc1Cl [Example 1-030]
50 | < 100 | CC(C)c1ccc(NC(=O)c2cccc3c2OCCN3c2ncccc2Cl)cc1 [Example 1-031]
51 | < 100 | CN1CCCc2ccc(NC(=O)c3cccc4c3OCCN4c3ncccc3Cl)cc21 [Example 1-033]
52 | < 100 | COC(=O)c1ccc(NC(=O)c2cccc3c2OCCN3c2ncccc2Cl)cc1 [Example 1-034, 4-(3-chloropyridin-2-yl)-N-(methoxycarbonylphenyl)-3,4-dihydro-2H-benzo[1,4]oxazine-8-carboxamide]
